The source of these data is patent publication US7910135B2, “Hydrogel wound dressing and biomaterials formed in situ and their uses” (ULURU Inc., priority 2006, dated 2011).

The test system of one data set is metalloproteases. To be noted: cited from earlier work.
Data set [1] is described as follows: Release of lidocaine or erythromycin from nanoparticle aggregates in PBS. It is filed as physicochemical. To be noted: dry blended with pHEMA or HEMA/GMA copolymer powder, aggregate formed in PBS.
From the text: Poly-HEMA nanoparticle powder and HEMA/GMA copolymer nanoparticle powders were dry blended with lidocaine or erythromycin powder and upon exposure to PBS, aggregates formed trapping the active between the particles comprising the aggregate.

Each structure is given as a SMILES string.

As for `c1cnc2c(c1)ccc1cccnc12` [1,10 phenanthroline], the Effective concentration in the data set with metalloproteases is listed as 0.1 mmol/L.
Regarding `CC[C@H]1OC(=O)[C@H](C)[C@@H](O[C@H]2C[C@@](C)(OC)[C@@H](O)[C@H](C)O2)[C@H](C)[C@@H](O[C@@H]2O[C@H](C)C[C@H](N(C)C)[C@H]2O)[C@](C)(O)C[C@@H](C)C(=O)[C@H](C)[C@@H](O)[C@]1(C)O` [erythromycin], in data set [1], the “Change of release rate as the glycerol methacrylate comonomer is increased” value is on record as “increases”.
On the same count and under the same terms, next, `CCN(CC)CC(=O)Nc1c(C)cccc1C` [lidocaine]: “released at a slower rate”.
